Source: patent publication US9937151B2, “Carbapenem antibacterials with gram-negative activity” (priority 2010, dated 2018)
In brackets after ≈: the same amount, converted by molar mass.

Tested on: G(−) bacterial strains
Assay: Dilution antimicrobial susceptibility tests (MIC, NCCLS agar dilution / broth dilution)
Format: cell-based, Gram-negative organisms
Conditions: unit assumed
Description: The MIC (minimum inhibitory concentration) was determined by the NCCLS (National Committee for Clinical Laboratory Standards) methods 2000. Methods for dilution antimicrobial susceptibility testing for bacteria that growth aerobically (M7-A5, vol. 20, No. 2). The agar dilution method for determining antimicrobial susceptibility was carried out using Mueller-Hinton agar. A final inoculum of 10^4 CFU/spot was applied with an inoculation device. Broth dilution tests were performed with 5×10^5 CFU/well in 96 well plates. The susceptibilities of streptococci were determined by Mueller-Hinton agar supplemented with 5% sheep blood. All assays were run with the indicated control strains, available from the ATCC (American Type Culture Collection, Rockville, Md.).
Abbreviations used in Table 1 are defined as follows: Cf-R: Ceftazidime Resistance, Ci-R: Ciprofloxacin Resistance, Gen-R: Gentamycin Resistance, Imp-R: Imipenem Resistance, Mp-R: Meropenem Resistance, Ofx-R: Ofloxacin Resistance, B+: β-lactamase Production, AmpC: AmpC-lactamase Hyper production, CBPase: Carbapenemase Production.

[1] = strain #1 Acinetobacter calcoaceticus
[2] = strain #2 Acinetobacter baumannii, Cf-R, Ci-R
[3] = strain #3 Acinetobacter baumannii, Cf-R, Ci-R, Mp-I
[4] = strain #4 Acinetobacter baumannii, Cf-R, Imp-I, CBPase
[5] = strain #7 Enterobacter aerogenes
[6] = strain #8 Enterobacter cloacae, Cf-R, B+
[7] = strain #9 Enterobacter cloacae, Cf-R
[8] = strain #10 Escherichia coli, Ci-R
[9] = strain #11 Escherichia coli, Ci-R, AmpC
[10] = strain #15 Klebsiella pneumoniae
[11] = strain #16 Moraxella catarrhalis
[12] = strain #21 Providencia rettgeri
[13] = strain #22 Salmonella typhimurium
[14] = strain #25 Shigella dysenteriae
[15] = strain #28 Stenotrophomonas maltophilia
[16] = strain #29 Pseudomonas aeruginosa
[17] = strain #30 Pseudomonas aeruginosa
[18] = strain #31 Pseudomonas aeruginosa, Ofx-R
[19] = strain #32 Pseudomonas aeruginosa, Cf-R
[20] = strain #33 Pseudomonas aeruginosa, Ci-R
[21] = strain #34 Pseudomonas aeruginosa, Gen-R
[22] = strain #35 Pseudomonas aeruginosa, Ip-R
[23] = strain #36 Pseudomonas aeruginosa, Cf-R, Ci-R, Mp-R

| Structure (SMILES) | MIC [1] | MIC [2] | MIC [3] | MIC [4] | MIC (strain #5 Citrobacter diversus) | MIC (strain #6 Citrobacter freundii) | MIC [5] | MIC [6] | MIC [7] | MIC [8] | MIC [9] | MIC (strain #12 Escherichia coli) | MIC (strain #13 Escherichia coli) | MIC (strain #14 Klebsiella oxytoca) | MIC [10] | MIC [11] | MIC (strain #17 Morganella Morganii) | MIC (strain #18 Morganella Morganii) | MIC (strain #19 Proteus vulgaris) | MIC (strain #20 Proteus mirabilis) | further results |
| --- | --- | --- | --- | --- | --- | --- | --- | --- | --- | --- | --- | --- | --- | --- | --- | --- | --- | --- | --- | --- | --- |
| C[C@@H](O)C1C(=O)N2C(C(=O)O)=C(CN3CC(NC(=N)N)C3)[C@H](C)C12 (stereo partly drawn) [Compound 89] | 0.13 mg/L (≈ 0.385 µM) | 1 mg/L (≈ 2.96 µM) | 1 mg/L (≈ 2.96 µM) | 0.5 mg/L (≈ 1.48 µM) | 0.13 mg/L (≈ 0.385 µM) | 0.25 mg/L (≈ 0.741 µM) | 1 mg/L (≈ 2.96 µM) | 0.13 mg/L (≈ 0.385 µM) | 0.25 mg/L (≈ 0.741 µM) | 0.13 mg/L (≈ 0.385 µM) | 0.13 mg/L (≈ 0.385 µM) | 0.13 mg/L (≈ 0.385 µM) | 0.25 mg/L (≈ 0.741 µM) | 0.5 mg/L (≈ 1.48 µM) | 0.25 mg/L (≈ 0.741 µM) | ≤ 0.008 mg/L | 2 mg/L (≈ 5.93 µM) | 2 mg/L (≈ 5.93 µM) | 0.5 mg/L (≈ 1.48 µM) | 0.25 mg/L (≈ 0.741 µM) | MIC [12]: 1 mg/L (≈ 2.96 µM); MIC [13]: 0.25 mg/L (≈ 0.741 µM); MIC (strain #23 Serratia marcescens): 0.5 mg/L (≈ 1.48 µM); MIC (strain #24 Serratia marcescens): 0.5 mg/L (≈ 1.48 µM); MIC [14]: 0.25 mg/L (≈ 0.741 µM); MIC (strain #26 Shigella sonnei): 0.25 mg/L (≈ 0.741 µM); MIC (strain #27 Shigella flexneri): 0.13 mg/L (≈ 0.385 µM); MIC [15]: 0.13 mg/L (≈ 0.385 µM); MIC [16]: 1 mg/L (≈ 2.96 µM); MIC [17]: 1 mg/L (≈ 2.96 µM); MIC [18]: 0.5 mg/L (≈ 1.48 µM); MIC [19]: 1 mg/L (≈ 2.96 µM); MIC [20]: 1 mg/L (≈ 2.96 µM); MIC [21]: 1 mg/L (≈ 2.96 µM); MIC [22]: 4 mg/L (≈ 11.9 µM); MIC [23]: 8 mg/L (≈ 23.7 µM) |
| C[C@@H](O)C1C(=O)N2C(C(=O)O)=C(CN3CC(N)C3)[C@H](C)C12 (stereo partly drawn) [Compound 93] | 1 mg/L (≈ 3.39 µM) | 2 mg/L (≈ 6.77 µM) | 8 mg/L (≈ 27.1 µM) | 2 mg/L (≈ 6.77 µM) | 0.25 mg/L (≈ 0.846 µM) | 0.5 mg/L (≈ 1.69 µM) | 2 mg/L (≈ 6.77 µM) | 0.25 mg/L (≈ 0.846 µM) | 0.5 mg/L (≈ 1.69 µM) | 0.25 mg/L (≈ 0.846 µM) | 0.25 mg/L (≈ 0.846 µM) | 0.25 mg/L (≈ 0.846 µM) | 0.5 mg/L (≈ 1.69 µM) | 0.5 mg/L (≈ 1.69 µM) | 0.5 mg/L (≈ 1.69 µM) | 0.031 mg/L (≈ 0.105 µM) | 8 mg/L (≈ 27.1 µM) | 4 mg/L (≈ 13.5 µM) | 2 mg/L (≈ 6.77 µM) | 0.5 mg/L (≈ 1.69 µM) | MIC [12]: 2 mg/L (≈ 6.77 µM); MIC [13]: 0.5 mg/L (≈ 1.69 µM); MIC (strain #23 Serratia marcescens): 1 mg/L (≈ 3.39 µM); MIC (strain #24 Serratia marcescens): 1 mg/L (≈ 3.39 µM); MIC [14]: 0.5 mg/L (≈ 1.69 µM); MIC (strain #26 Shigella sonnei): 0.5 mg/L (≈ 1.69 µM); MIC (strain #27 Shigella flexneri): 0.25 mg/L (≈ 0.846 µM); MIC [15]: 0.5 mg/L (≈ 1.69 µM); MIC [16]: 4 mg/L (≈ 13.5 µM); MIC [17]: 4 mg/L (≈ 13.5 µM); MIC [18]: 4 mg/L (≈ 13.5 µM); MIC [19]: 4 mg/L (≈ 13.5 µM); MIC [20]: 8 mg/L (≈ 27.1 µM); MIC [21]: 8 mg/L (≈ 27.1 µM); MIC [22]: 16 mg/L (≈ 54.2 µM); MIC [23]: 16 mg/L (≈ 54.2 µM) |
| C[C@@H](O)C1C(=O)N2C(C(=O)O)=C(CN3CC[C@H](CNC(=N)N)C3)[C@H](C)C12 (stereo partly drawn) [Compound 99] | 0.25 mg/L (≈ 0.684 µM) | 1 mg/L (≈ 2.74 µM) | 2 mg/L (≈ 5.47 µM) | 2 mg/L (≈ 5.47 µM) | 0.5 mg/L (≈ 1.37 µM) | 1 mg/L (≈ 2.74 µM) | 2 mg/L (≈ 5.47 µM) | 0.5 mg/L (≈ 1.37 µM) | 1 mg/L (≈ 2.74 µM) | 0.5 mg/L (≈ 1.37 µM) | 0.5 mg/L (≈ 1.37 µM) | 0.5 mg/L (≈ 1.37 µM) | 1 mg/L (≈ 2.74 µM) | 2 mg/L (≈ 5.47 µM) | 1 mg/L (≈ 2.74 µM) | ≤ 0.008 mg/L | 4 mg/L (≈ 10.9 µM) | 4 mg/L (≈ 10.9 µM) | 2 mg/L (≈ 5.47 µM) | 1 mg/L (≈ 2.74 µM) | MIC [12]: 4 mg/L (≈ 10.9 µM); MIC [13]: 1 mg/L (≈ 2.74 µM); MIC (strain #23 Serratia marcescens): 2 mg/L (≈ 5.47 µM); MIC (strain #24 Serratia marcescens): 4 mg/L (≈ 10.9 µM); MIC [14]: 1 mg/L (≈ 2.74 µM); MIC (strain #26 Shigella sonnei): 1 mg/L (≈ 2.74 µM); MIC (strain #27 Shigella flexneri): 1 mg/L (≈ 2.74 µM); MIC [15]: 0.25 mg/L (≈ 0.684 µM); MIC [16]: 2 mg/L (≈ 5.47 µM); MIC [17]: 2 mg/L (≈ 5.47 µM); MIC [18]: 1 mg/L (≈ 2.74 µM); MIC [19]: 4 mg/L (≈ 10.9 µM); MIC [20]: 4 mg/L (≈ 10.9 µM); MIC [21]: 4 mg/L (≈ 10.9 µM); MIC [22]: 4 mg/L (≈ 10.9 µM); MIC [23]: > 32 mg/L |
| C[C@@H](O)C1C(=O)N2C(C(=O)O)=C(CN3CC[C@H](NC(=N)NS(C)(=O)=O)C3)[C@H](C)C12 (stereo partly drawn) [Compound 106] | 4 mg/L (≈ 9.31 µM) | 2 mg/L (≈ 4.66 µM) | 8 mg/L (≈ 18.6 µM) | 2 mg/L (≈ 4.66 µM) | 1 mg/L (≈ 2.33 µM) | 1 mg/L (≈ 2.33 µM) | 2 mg/L (≈ 4.66 µM) | 1 mg/L (≈ 2.33 µM) | 2 mg/L (≈ 4.66 µM) | 1 mg/L (≈ 2.33 µM) | 0.5 mg/L (≈ 1.16 µM) | 1 mg/L (≈ 2.33 µM) | 1 mg/L (≈ 2.33 µM) | 2 mg/L (≈ 4.66 µM) | 1 mg/L (≈ 2.33 µM) | ≤ 0.008 mg/L | 4 mg/L (≈ 9.31 µM) | 4 mg/L (≈ 9.31 µM) | 2 mg/L (≈ 4.66 µM) | 1 mg/L (≈ 2.33 µM) | MIC [12]: 4 mg/L (≈ 9.31 µM); MIC [13]: 1 mg/L (≈ 2.33 µM); MIC (strain #23 Serratia marcescens): 2 mg/L (≈ 4.66 µM); MIC (strain #24 Serratia marcescens): 2 mg/L (≈ 4.66 µM); MIC [14]: 1 mg/L (≈ 2.33 µM); MIC (strain #26 Shigella sonnei): 1 mg/L (≈ 2.33 µM); MIC (strain #27 Shigella flexneri): 0.5 mg/L (≈ 1.16 µM); MIC [15]: 1 mg/L (≈ 2.33 µM); MIC [16]: 8 mg/L (≈ 18.6 µM); MIC [17]: 8 mg/L (≈ 18.6 µM); MIC [18]: 4 mg/L (≈ 9.31 µM); MIC [19]: 8 mg/L (≈ 18.6 µM); MIC [20]: 8 mg/L (≈ 18.6 µM); MIC [21]: 8 mg/L (≈ 18.6 µM); MIC [22]: 16 mg/L (≈ 37.3 µM); MIC [23]: > 32 mg/L |
